Test results from patent US9220705B2, “Method of treating colorectal cancer” (priority 2013, dated 2015).
Entries after “also recorded” stand apart in the source; their conditions may differ.

Tests used:
LoVo-OXP cells = assay: Cellular platinum uptake by GF-AAS; format: cell-based, human; conditions: LoVo-OXP resistant cells, 5 μM, 6, 24, 48 h, FIG. 2 panel B, compared with LoVo
Experimental: LoVo and LoVo-OXP cells (2×10^6) were seeded in 75 cm^2 flasks in growth medium (20 ml). After 24 h, the medium was replaced and the cells incubated for different times (6, 24 or 48 h) in the presence of the tested complexes. Cell monolayers were washed twice with cold PBS and harvested. Samples were subjected to three freezing/thawing cycles at −80° C., and then vigorously vortexed. Aliquots were removed for the determination of protein content by the BioRad protein assay (BioRad). The samples were treated with 1 mL of highly pure nitric acid (Pt: ≦0.01 μg×kg^−1, TraceSELECT® Ultra, Sigma Chemical Co.) and transferred into a microwave teflon vessel. Subsequently, samples were submitted to a standard procedure using a speed wave MWS-3 Berghof instrument (Eningen, Germany). After cooling, each mineralized sample was analyzed for platinum by using a Varian AA Duo graphite furnace atomic absorption spectrometer (Varian, Palo Alto, Calif.; USA) at the wavelength of […]. The calibration curve was obtained using known concentrations of standard solutions purchased from Sigma Chemical Co.
It is well-known that cellular uptake is an important factor influencing drug efficacy. […] The intracellular platinum was quantified by means of GF-AAS analysis and the results, expressed as μg metal mg^−1 of cellular proteins, are summarized in FIG. 2.

HCT-15 = assay: MTT cytotoxicity assay, 72 h; format: cell-based, human; conditions: HCT-15, colon
A431 = assay: MTT cytotoxicity assay, 72 h; format: cell-based, human; conditions: A431, cervix
DLD-1 = assay: MTT cytotoxicity assay, 72 h; format: cell-based, human; conditions: DLD-1, colon
[1] = system: LoVo-OXP colorectal adenocarcinoma xenografts; assay: In vivo anticancer activity, oxaliplatin-resistant colorectal xenograft; design: species or system BALB/c nu/nu mice
Experimental: LoVo and LoVo-OXP tumor xenografts were established in 6-week-old BALB/c nu/nu mice by injecting 1×10^7 tumor cells subcutaneously (100 μL in serum free medium) on the left dorsal flank. After 24 h from tumor implantation, mice were randomly divided into five groups (6 animals per group, 8 controls). Chemotherapy was delayed until the tumor became palpable (day 14). From day 14, 1 was dosed daily at 3 mg/kg ip whereas OXP was dosed daily at 2 mg/kg ip. Measurements of body weights and tumor volumes were recorded every 2 days until the experimental endpoint. The long axis (L) and the short axis (S) were measured with caliper, and the tumor volume (V) was calculated using the following equation: V=S×S×L/2. At day 30, animals were sacrificed, and the inhibition of tumor growth was determined by comparing the volume of the control group and the treatment group expressed as % referred to the control animals.
All the values are the means±S.D. of not less than three measurements. Multiple comparisons were made by Tukey-Kramer test (**p<0.01; *p<0.05).

**Q.** `O=C1[O][Pt-2]2([NH2+]C3CCCC[C@H]3[NH2+]2)[O]C1=O` (stereo partly drawn) [oxaliplatin, [(1R,2R)-cyclohexane-1,2diamine](ethanedioato)platinum(II), reference compound] was tested. Which intracellular platinum accumulation (LoVo-OXP cells) did it give?
**A.** The intracellular platinum accumulation was “remarkably decreased; also recorded: decreases remarkably”.

**Q.** And the IC50 (HCT-15)?
**A.** The IC50 was 1.25 ± 1.05 µM.

**Q.** And the IC50 (A431)?
**A.** Its IC50 is 3.69 ± 1.03 µM.

**Q.** What about the IC50 (DLD-1) of the same molecule?
**A.** Its IC50 is 5.81 ± 1.93 µM.

**Q.** And the “antitumor activity, times lower than that exerted by 1” value ([1]; LoVo-OXP models)?
**A.** Its value is 2.4.

**Q.** And the tumor growth inhibition ([1]; LoVo-OXP xenograft, daily ip day 14 to day 30, 1 at 3 mg/kg, OXP at 2 mg/kg, tumor volume at day 30)?
**A.** Its tumor growth inhibition is 24%.
